Laboratory results from patent US10472677B2, “Translational dysfunction based therapeutics” (Translational Therapeutics, Inc., priority 2005, dated 2019).

Columns and labels:
eIF4E W73A = target: T1, eIF4E W73A (Mus musculus, UniProt P63073, W73A); assay: tryptophan fluorescence quenching titration, dorsal surface mutant; assay type: binding; conditions: relative to wild-type eIF4E
T1 construct: made in house
Protocol: For fluorescence titrations, mouse eIF4E, which differs from human eIF4E by four nonconserved amino acids, was produced as described. For NMR spectroscopy, mouse eIF4E was expressed as a fusion with the B1 domain of protein G (G4E, kind gift of Gerhard Wagner, Harvard University, Cambridge, Mass.), in BL21 (DE-3) cells by induction with 0.8 mM isopropyl-β-D-thiogalactopyranoside at 18° C. for 20 h in M9 minimal media containing 1 g/l ^15NH4Cl as the sole nitrogen source (Cambridge Isotopes). […] Eluate was dialyzed extensively against 0.1 M NaCl/50 mM Na2PO4 (pH 6.5)/5 mM DTT at 4° C. to produce apo-G4E, as verified by using NMR spectroscopy and fluorescence titrations. […]
Fluorescence measurements were performed by using a home-built fluorimeter, as described. All titrations were performed in 0.3 M NaCl/10 mM Na2PO4 (pH 7.5)/1 μM zinc in 0.3×0.3 cm^2 fluorescence cuvette (Hellma), by using eIF4E concentration of 2 μM. […] Corrected relative fluorescence intensities were normalized, and fluorescence quenching curves were fit to a heuristic single-site-binding expression: I/I0=Kd^n/(x^n+Kd^n) where x is ligand concentration, Kd is the apparent dissociation constant, and n is the Hill coefficient.

[1] = target: T2, eIF4E:mRNA binding in cells (Mus musculus, UniProt P63073); assay: immunopurification of eIF4E from treated cells and semiquantitative RT-PCR; assay type: cell-based
T2 construct: endogenous in cells; host or cells: NIH 3T3 cells
T2 sequence (P63073 2-217 limits assumed): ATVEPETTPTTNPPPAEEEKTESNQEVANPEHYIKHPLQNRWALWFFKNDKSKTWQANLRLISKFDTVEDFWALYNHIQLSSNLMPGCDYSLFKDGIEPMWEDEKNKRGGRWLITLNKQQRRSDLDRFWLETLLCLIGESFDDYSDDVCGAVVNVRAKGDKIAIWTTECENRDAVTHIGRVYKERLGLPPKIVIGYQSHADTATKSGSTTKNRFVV
Protocol: Sepharose-conjugated protein G (Amersham Pharmacia) for 30 min at 4° C., incubated with 10 μg of mouse anti-eIF4E antibody (Transduction Laboratories) for 90 min at 4° C., and subsequently incubated overnight at 4° C. upon addition of 0.5 mg yeast tRNA (Sigma-Aldrich), 200 units/ml RNasin (Ambion), and Sepharose-conjugated protein G. Bound Sepharose was washed once with NET-2 buffer supplemented with 1 mg/ml heparin (Sigma-Aldrich) at 4° C., six times with NET-2 buffer alone, and suspended in 100 mM Tris.HCl (pH 6.8)/4% (wt/vol) SDS/20% (vol/vol) glycerol/12% (vol/vol) 2-mercaptoethanol, and incubated for 5 min at 98° C. RNA was extracted once with 25:24:1 […], twice with chloroform:isopropanol, precipitated overnight at −20° C. with 2.5 volumes of absolute ethanol, 0.1 volume of 5 M sodium acetate (pH 5.2), and 20 μg glycogen (Sigma-Aldrich), washed with 75% (vol/vol) ethanol, and resuspended in water. […]. […]

NIH 3T3 cells = assay type: cell-based, mouse
Protocol: For assessment of necrosis and apoptosis, cells were washed twice with PBS, suspended in 0.14 M NaCl/10 mM Na-Hepes (pH 7.4/2.5 mM CaCl2 at 4° C. at a density of 10^6 cell per ml, and stained with 5 μg/ml propidium iodide and FITC-conjugated annexin V (Becton Dickinson) for 15 min at room temperature Immediately thereafter, cells were washed and analyzed by using a FACSCalibur fluorescence-activated cell scanner (Becton Dickinson). For assessment of cell-cycle profiles, cells were washed twice with PBS, fixed, and permeabilized in 70% (vol/vol) ethanol for 30 min at 4° C., and incubated in PBS containing 10 μg/ml propidium iodide and 30 units/ml RNase A at 37° C. for 30 min. For both measurements, detector gain and compensation settings were adjusted to minimize autofluorescence of unstained cells and channel crosstalk. For cell-cycle analysis, the propidium iodide channel was gated based on light scattering to exclude clumped cells, which may artifactually skew the observed fluorescence intensity.
Cells were seeded at a density of 5,000 cells per well and maintained in 100 μl per well in 96-well plates. […] Production of formazan was quantified by using a μ Quant plate reader (Bio-Tek Instruments) by monitoring the difference in absorbance at 492 and 690 nm, as referenced to the difference in absorbance of samples containing 50 μl of RPMI medium 1640 without phenol red. […]

FaDu tumors in nude mice = assay type: in vivo
Protocol: Female 5- to 7-week-old athymic NCr-nu/nu mice were obtained from Taconic Farms. Human FaDu cells, derived from a hypopharyngeal squamous cell carcinoma, were obtained from the American Type Culture Collection. Mice were inoculated s.c. into the right flank with 0.5×10^6 cells in 50 μl PBS, and were randomly segregated into two groups of 10 mice each. After 1 week of engraftment, treatment was administered orally each day at a dose of 40 μg/kg Ribavirin. Tumor size was ascertained by measuring tumor diameter, and statistical significance was ascertained by using a paired t test.

cellular guanosine pools = conditions: read-out: EC50 depletion of cellular guanosine pools; cited from earlier work

T1 sequence (P63073 whole entry W73A): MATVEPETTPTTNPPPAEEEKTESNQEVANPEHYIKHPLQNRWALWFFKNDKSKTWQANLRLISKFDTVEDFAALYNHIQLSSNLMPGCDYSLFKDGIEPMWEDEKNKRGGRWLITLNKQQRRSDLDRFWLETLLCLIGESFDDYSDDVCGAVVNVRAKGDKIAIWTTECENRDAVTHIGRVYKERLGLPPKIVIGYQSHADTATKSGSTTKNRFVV

For `NC(=O)c1ncn([C@@H]2O[C@H](CO)[C@@H](O)[C@H]2O)n1` [Ribavirin, 1-β-D-ribofuranosyl-1,2,4-triazole-3-carboxamide], the “effect of W73A mutation on Ribavirin affinity” value (eIF4E W73A) was “no significant effect”, the “cytoplasmic eIF4E:VEGF mRNA complexes” value ([1]; 1 uM) was “partly abrogated” and the “cytoplasmic eIF4E:actin mRNA complexes” value ([1]; 100 uM) was “not disrupted”. For the same molecule, the EC50 ([1]; nuclear eIF4E, read-out: apparent EC50 inhibition of eIF4E binding to cyclin D1 mRNA in cells) was roughly 1 µM, the “proportion of cells restricted to the G1 phase” value (NIH 3T3 cells; 0.1 μM, untreated 58%) was 91% and the “concentration with significant effects on viability and metabolism” value (NIH 3T3 cells; mouse) was no less than 100 µM. The “mean tumor volume, fold less than untreated control” value (FaDu tumors in nude mice; 40 ug/kg orally daily, after 20 days, P=0.023) was 6 fold, the mean body concentration (FaDu tumors in nude mice; 40 ug/kg orally each day) was “ca. 1 uM” and the EC50 (cellular guanosine pools) was roughly 100 µM.
